Measured values taken from publication PMC3377984 (Journal of Molecular Neuroscience, 2012).

Columns and labels:
Mouse 6-Hz test = assay: 6-Hz seizure test, mouse; assay type: in vivo; settings: at 100 mg/kg
rat hippocampal cultures = assay: Neuroprotection from acute glutamate toxicity, CFDA neuronal viability assay; assay type: cell-based; settings: initial testing of the core compound; assay not specified
Rat MES = assay: Maximal electroshock test; assay type: in vivo; settings: at 30 mg/kg
Mouse scPTZ = assay: Subcutaneous pentylenetetrazol; assay type: in vivo
Mouse MES = assay: Maximal electroshock test; assay type: in vivo; settings: at 100 mg/kg
[1] = Caco-2 bidirectional permeability assay; assay type: in vitro ADME, human; settings: human
Caco-2 cells = assay: Caco-2 bidirectional permeability assay; assay type: in vitro ADME, human

Row | Compound | Mouse 6-Hz test (i.p.), animals protected/tested (Mouse 6-Hz test) | potency for neuroprotection (rat hippocampal cultures) [nM] | Rat MES (oral), animals protected/tested (Rat MES) | Mouse scPTZ (s.c. EC50) (Mouse scPTZ; PTZ 85 mg/kg s.c.) [mg/kg] | activity in the mouse pentylenetetrazol model (Mouse scPTZ; at 300 mg/kg i.p.) | Mouse MES (i.p.), animals protected/tested (Mouse MES) | Papp A→B at 5 µM [1] [×10⁻⁶ cm/s] | Permeability classification (Caco-2 cells) | Papp B→A at 5 µM [1] [×10⁻⁶ cm/s] | efflux ratio at 5 µM [1] | Significant efflux (Caco-2 cells)
1 | NS(=O)(=O)NCC(O)c1ccccc1F (stereo not shown) [AND-171, 2-(2-Fluorophenyl)-2-hydroxyethylsulfamide] | 1/4 at 100 mg/kg | 30 to 100 | 1/4 at 30 mg/kg | >300 | no demonstrated activity | 1/3 at 100 mg/kg |  |  |  |  | 
2 | CC(C)NCC(O)COc1cccc2ccccc12 (stereo not shown) [Propranolol control, Propranolol] |  |  |  |  |  |  | 17.1 | High |  |  | 
3 | C[C@H]1O[C@@H](O[C@H]2[C@@H](O)C[C@H](O[C@H]3[C@@H](O)C[C@H](O[C@H]4CC[C@@]5(C)[C@H](CC[C@@H]6[C@@H]5C[C@@H](O)[C@]5(C)[C@@H](C7=CC(=O)OC7)CC[C@]65O)C4)O[C@@H]3C)O[C@@H]2C)C[C@H](O)[C@@H]1O [Digoxin control, Digoxin] |  |  |  |  |  |  | 0.62 | Low | 12.5 | 20.2 | Yes
